In ChEMBL document CHEMBL1201862, “PubChem BioAssay data set” (2004):
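Dose response: 5 concentrations. Exposure: 48 h. Format: 96-well plates. Endpoint: linear interpolation; highest concentration if not reached. GI50 = concentration required for 50% inhibition of growth.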 Calls of active or inactive are those of the source. No stated cut-off is given here; in the data, active = GI50 up to about 1.1 µM and inactive = higher.

How the values were obtained:
Experiment in all cases: NCI tumour cell line growth inhibition, 48 h
HCT-116 = test system: HCT-116
XF498 = test system: XF498
ACHN = test system: ACHN
SF-539 = test system: SF-539
LOX IMVI = test system: LOX IMVI
CAKI-1 = test system: CAKI-1
HOP-92 = test system: HOP-92
TK-10 = test system: TK-10
NCI-H522 = test system: NCI-H522
SF-295 = test system: SF-295
SK-MEL-28 = test system: SK-MEL-28
OVCAR-5 = test system: OVCAR-5
SR = test system: SR
NCI-H23 = test system: NCI-H23
MOLT-4 = test system: MOLT-4
HT-29 = test system: HT-29
A549 = test system: A549
HCT-15 = test system: HCT-15
UACC-257 = test system: UACC-257
HOP-62 = test system: HOP-62
HL-60 = test system: HL-60
NCI-H460 = test system: NCI-H460
DMS-114 = test system: DMS-114
A498 = test system: A498
KM-20L2 = test system: KM-20L2
M14 = test system: M14
EKVX = test system: EKVX
NCI-H226 = test system: NCI-H226
SW-620 = test system: SW-620
SF-268 = test system: SF-268
IGROV-1 = test system: IGROV-1
OVCAR-3 = test system: OVCAR-3
DMS-273 = test system: DMS-273
UACC-62 = test system: UACC-62
M19-MEL = test system: M19-MEL
OVCAR-8 = test system: OVCAR-8
UO-31 = test system: UO-31
SK-MEL-5 = test system: SK-MEL-5
DLD-1 = test system: DLD-1
COLO 205 = test system: COLO 205
SNB-19 = test system: SNB-19
HCC 2998 = test system: HCC 2998
SNB-78 = test system: SNB-78
LXFL 529 = test system: LXFL 529
SK-MEL-2 = test system: SK-MEL-2
K562 = test system: K562
U-251 = test system: U-251
Malme-3M = test system: Malme-3M
RPMI-8226 = test system: RPMI-8226
KM12 = test system: KM12
786-0 = test system: 786-0
CCRF-CEM = test system: CCRF-CEM
OVCAR-4 = test system: OVCAR-4
SN12C = test system: SN12C
SK-OV-3 = test system: SK-OV-3

Measured: GI50

CC(=O)NNc1nc(C)c(C(=O)NNC(=O)C(=O)Nc2c([N+](=O)[O-])ccc(C)c2C)s1
> 100 µM: HCT-15
inactive: HCT-116 > 100 µM | XF498 > 100 µM | ACHN > 100 µM | SF-539 > 100 µM | LOX IMVI 78.3 µM | CAKI-1 > 100 µM | HOP-92 > 100 µM | TK-10 > 100 µM | NCI-H522 50.9 µM | SF-295 > 100 µM | SK-MEL-28 > 100 µM | OVCAR-5 > 100 µM | SR 92.3 µM | NCI-H23 > 100 µM | MOLT-4 43.6 µM | HT-29 > 100 µM | A549 > 100 µM | UACC-257 > 100 µM | HOP-62 > 100 µM | HL-60 > 100 µM | NCI-H460 > 100 µM | DMS-114 > 100 µM | A498 31.6 µM | KM-20L2 > 100 µM | M14 > 100 µM | EKVX > 100 µM | NCI-H226 > 100 µM | SW-620 76.9 µM | SF-268 90.6 µM | IGROV-1 > 100 µM | OVCAR-3 > 100 µM | DMS-273 > 100 µM | UACC-62 > 100 µM | M19-MEL > 100 µM | OVCAR-8 > 100 µM | UO-31 > 100 µM | SK-MEL-5 > 100 µM | DLD-1 > 100 µM | COLO 205 > 100 µM | SNB-19 > 100 µM | HCC 2998 > 100 µM | SNB-78 > 100 µM | LXFL 529 65.2 µM | SK-MEL-2 > 100 µM | K562 41.5 µM | U-251 > 100 µM | Malme-3M > 100 µM | RPMI-8226 > 100 µM | KM12 > 100 µM | 786-0 > 100 µM | CCRF-CEM 31 µM | OVCAR-4 52.8 µM | SN12C > 100 µM

C=C(Cl)Cc1c(O)c2c(c(O)c1CC(=C)Cl)C(=O)c1ccccc1C2=O
inactive: XF498 > 100 µM | ACHN > 100 µM | LOX IMVI > 100 µM | CAKI-1 > 100 µM | TK-10 > 100 µM | OVCAR-5 > 100 µM | SR > 100 µM | MOLT-4 > 100 µM | A549 > 100 µM | HOP-62 > 100 µM | HL-60 > 100 µM | DMS-114 > 100 µM | KM-20L2 > 100 µM | M14 > 100 µM | EKVX > 100 µM | SW-620 > 100 µM | IGROV-1 > 100 µM | DMS-273 > 100 µM | UACC-62 > 100 µM | OVCAR-8 > 100 µM | SK-MEL-5 > 100 µM | DLD-1 > 100 µM | COLO 205 > 100 µM | HCC 2998 > 100 µM | LXFL 529 > 100 µM | SK-MEL-2 > 100 µM | SK-OV-3 > 100 µM | K562 > 100 µM | U-251 > 100 µM | Malme-3M > 100 µM | RPMI-8226 > 100 µM | 786-0 > 100 µM | CCRF-CEM > 100 µM | OVCAR-4 > 100 µM | SN12C > 100 µM
> 100 µM: HCT-15
